According to paper PMC12676778, “Long-tailed class I myosins rely on tail-mediated phosphoinositide recognition for specific membrane recruitment” (Cell Communication and Signaling : CCS, 2025):

What was measured:
Myosin-1C-tail = molecular target: T1, Myosin-1C-tail (Dictyostelium discoideum, UniProt P42522); assay: liposome co-sedimentation, YFP fluorescence of supernatant; assay type: binding; conditions: PolyPIPosomes (5% PIP, 95% PE + PC), accessible lipid; 10 mM Tris pH 7.5, 100 mM NaCl, 1 mM EGTA, room temperature
T1 construct: gene myoC; GST and/or YFP tags kept; E. coli Rosetta pLysS
T1 sequence (P42522 699-1182 limits assumed): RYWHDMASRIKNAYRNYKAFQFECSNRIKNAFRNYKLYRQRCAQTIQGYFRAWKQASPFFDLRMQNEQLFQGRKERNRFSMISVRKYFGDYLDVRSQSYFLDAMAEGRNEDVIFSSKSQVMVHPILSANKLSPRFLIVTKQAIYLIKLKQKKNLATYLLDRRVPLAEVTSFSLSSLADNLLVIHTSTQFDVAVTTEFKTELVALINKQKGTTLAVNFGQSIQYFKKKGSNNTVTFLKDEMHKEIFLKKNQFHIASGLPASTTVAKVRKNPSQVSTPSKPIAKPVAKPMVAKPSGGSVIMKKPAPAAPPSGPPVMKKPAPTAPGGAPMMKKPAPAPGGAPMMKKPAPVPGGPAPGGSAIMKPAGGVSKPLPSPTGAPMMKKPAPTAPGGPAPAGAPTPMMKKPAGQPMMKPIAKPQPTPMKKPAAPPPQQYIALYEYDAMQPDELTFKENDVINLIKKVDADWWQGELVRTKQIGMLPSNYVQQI
Excerpt: liposome co-sedimentation, YFP fluorescence of supernatant on Myosin-1C-tail

Myosin-1D-tail = molecular target: T2, Myosin-1D-tail (Dictyostelium discoideum, UniProt P34109); assay: as above; assay type: binding; conditions: PolyPIPosomes (5% PIP, 95% PE + PC), accessible lipid; 10 mM Tris pH 7.5, 100 mM NaCl, 1 mM EGTA, room temperature
T2 construct: gene myoD; tail fragment (TH1, SH3, TH2), residues 717-1113; N-terminal GST and/or C-terminal YFP tags kept; E. coli Rosetta pLysS
T2 sequence (P34109 717-1109): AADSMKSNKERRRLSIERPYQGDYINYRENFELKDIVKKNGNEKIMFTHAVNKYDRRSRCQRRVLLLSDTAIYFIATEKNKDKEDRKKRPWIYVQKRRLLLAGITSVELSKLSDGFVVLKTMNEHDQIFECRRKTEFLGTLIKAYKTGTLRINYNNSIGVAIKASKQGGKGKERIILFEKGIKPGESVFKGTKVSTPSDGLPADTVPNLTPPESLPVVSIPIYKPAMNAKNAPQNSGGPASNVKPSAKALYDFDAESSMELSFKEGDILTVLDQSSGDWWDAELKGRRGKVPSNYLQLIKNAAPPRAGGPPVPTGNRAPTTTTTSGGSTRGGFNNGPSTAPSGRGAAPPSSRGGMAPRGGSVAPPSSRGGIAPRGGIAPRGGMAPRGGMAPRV
Excerpt: liposome co-sedimentation, YFP fluorescence of supernatant on Myosin-1D-tail

Myosin-1B-tail = molecular target: T3, Myosin-1B-tail (Dictyostelium discoideum, UniProt P34092); assay: as above; assay type: binding; conditions: PolyPIPosomes (5% PIP, 95% PE + PC), accessible lipid; 10 mM Tris pH 7.5, 100 mM NaCl, 1 mM EGTA, room temperature
T3 construct: gene myoB; tail fragment (TH1, TH2, SH3), residues 717-1111; N-terminal GST and/or C-terminal YFP tags kept; E. coli Rosetta pLysS
T3 sequence (P34092 717-1111): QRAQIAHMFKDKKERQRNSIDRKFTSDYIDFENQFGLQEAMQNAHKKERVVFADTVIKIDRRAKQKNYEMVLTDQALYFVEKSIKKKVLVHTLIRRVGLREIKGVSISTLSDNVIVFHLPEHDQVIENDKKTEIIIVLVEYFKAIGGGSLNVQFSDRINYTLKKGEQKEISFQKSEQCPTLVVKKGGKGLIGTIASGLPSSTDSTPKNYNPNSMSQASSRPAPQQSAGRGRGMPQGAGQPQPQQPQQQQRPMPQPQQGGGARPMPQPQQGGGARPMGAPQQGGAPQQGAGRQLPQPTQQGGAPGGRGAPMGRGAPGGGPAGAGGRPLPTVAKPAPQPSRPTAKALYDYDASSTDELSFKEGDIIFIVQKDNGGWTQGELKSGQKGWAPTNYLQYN
Excerpt: liposome co-sedimentation, YFP fluorescence of supernatant on Myosin-1B-tail

Dictyostelium cells = assay: Myosin-1 localization in LY294002-treated (PI(3,4,5)P3-depleted) cells during endocytosis, confocal imaging; assay type: cell-based, Dictyostelium discoideum; conditions: 20 µM, starving cells
Description: Microtubule depolymerization rates were quantified by measuring individual microtubule length reduction over time using Andor Solis software. Cellular localization of fluorescently tagged myosins and time-lapse imaging were performed on an inverted Leica TCS SP2 AOBS confocal microscope and a Leica DMi8 M system equipped with a 63×/1.4 NA oil immersion objective. Bright-field fluorescence microscopy employed an Olympus IX81 inverted microscope with a 60×/1.49 NA oil immersion lens (ApoN, Olympus). For imaging, cells were seeded on glass-bottom dishes (Ibidi), washed twice with MES buffer (20 mM MES, pH 6.8, 0.2 mM CaCl₂, 2 mM MgCl₂), and maintained in this buffer during acquisition. Phagocytic uptake assays were performed following a 2-hour starvation, after which heat-killed yeast particles were added and time-lapse images recorded. […] Image processing was performed using Leica Confocal Software, and quantitative analysis was conducted with ImageJ (NIH, Bethesda, MD, USA). Fluorescence intensity profiles were obtained by drawing lines along the regions of the cups, as illustrated in Fig. 5. Fluorescence data were normalized to the maximum intensity and interpolated using the interpolation algorithm in Origin to account for variations in cup length. Frames showing association of myosin-1C or myosin-1D with the cups were quantified. […]

Compound | Kd (Myosin-1C-tail) | Kd (Myosin-1D-tail) | Kd (Myosin-1B-tail) | cortical actin dynamics and association of actin with the early endosome (Dictyostelium cells) | localization of myosin-1C and myosin-1D with endocytic cups and endosomal membranes (Dictyostelium cells)
PI(3,4,5)P3 | 2500 ± 300 nM | 300 ± 40 nM |  |  | 
PI(4,5)P2 |  | 700 ± 100 nM |  |  | 
PI(3,4)P2 |  |  | 2200 ± 400 nM |  | 
PI(3,5)P2 | 600 ± 100 nM | 800 ± 100 nM |  |  | 
PI(3)P | 4000 ± 300 nM | 1700 ± 300 nM |  |  | 
PI(5)P | 500 ± 100 nM |  | 7700 ± 600 nM |  | 
PI(4)P | 400 ± 100 nM | 1200 ± 200 nM |  |  | 
O=c1cc(N2CCOCC2)oc2c(-c3ccccc3)cccc12 [LY294002] |  |  |  | did not disrupt | almost fully abolished
